Converted amounts (≈) assume the structure as drawn.
Tests used:
[1] = biological target: T1, CDK6/cyclin D3 (Homo sapiens, UniProt Q00534); parameters: species or system Sf9
[2] = Cmax in Sprague-Dawley rat at 10 mg/kg, po by LC-MS/MS analysis; format: ADME, organism-based; parameters: dose 10 mg/kg, route oral; conditions: in vivo
[3] = system: Jurkat; test: Antiproliferative activity against human Jurkat cells assessed as inhibition of cell proliferation measured after 48 hrs by CCK8 assay; format: functional, cell-based
[4] = system: MDA-MB-231; test: Induction of apoptosis in human MDA-MB-231 cells assessed as late apoptotic cells at 12 uM measured after 48 hrs by Annexin V-FITC/propidium iodide staining based flow cytometry (2.78%); format: functional
[5] = AUC (0 to infinity) in Sprague-Dawley rat at 2 mg/kg, iv by LC-MS/MS analysis; format: ADME, organism-based; parameters: dose 2 mg/kg, route intravenous, time infinity; conditions: in vivo
[6] = system: MDA-MB-231; test: Induction of apoptosis in human MDA-MB-231 cells assessed as necrotic cells at 12 uM measured after 48 hrs by Annexin V-FITC/propidium iodide staining based flow cytometry (0.498%); format: functional
[7] = Clearance in human hepatocytes assessed per million cells by LC-MS/MS analysis; format: ADME, cell-based, Hepatocyte; conditions: read-out: CLH
[8] = system: MDA-MB-231; test: Cell cycle arrest in human MDA-MB-231 cells assessed as accumulation at G0/G1 phase at 8 uM measured after 48 hrs by propidium iodide staining based flow cytometry (reference value: 57.65%); format: functional
[9] = system: MDA-MB-231; test: Antiproliferative activity against human MDA-MB-231 cells assessed as inhibition of cell proliferation measured after 48 hrs by CCK8 assay; format: functional, cell-based; conditions: MDA-MB-231, 48 h
[10] = system: MDA-MB-231; test: Induction of apoptosis in human MDA-MB-231 cells assessed as viable cells at 4 uM measured after 48 hrs by Annexin V-FITC/propidium iodide staining based flow cytometry (95.8%); format: functional; conditions: MDA-MB-231, 48 h, read-out: Activity
[11] = Half life in human hepatocytes by LC-MS/MS analysis; format: ADME, cell-based, Hepatocyte
[12] = system: MDA-MB-231; test: Cell cycle arrest in human MDA-MB-231 cells assessed as accumulation at S phase at 8 uM measured after 48 hrs by propidium iodide staining based flow cytometry (reference value: 26.45%); format: functional
[13] = system: MDA-MB-231; test: Induction of apoptosis in human MDA-MB-231 cells assessed as necrotic cells at 4 uM measured after 48 hrs by Annexin V-FITC/propidium iodide staining based flow cytometry (0.498%); format: functional
[14] = system: MDA-MB-231; test: Induction of apoptosis in human MDA-MB-231 cells assessed as late apoptotic cells at 4 uM measured after 48 hrs by Annexin V-FITC/propidium iodide staining based flow cytometry (2.78%); format: functional
[15] = system: MDA-MB-231; test: Induction of apoptosis in human MDA-MB-231 cells assessed as viable cells at 8 uM measured after 48 hrs by Annexin V-FITC/propidium iodide staining based flow cytometry (95.8%); format: functional; conditions: MDA-MB-231, 48 h, read-out: Activity
[16] = system: MDA-MB-231; test: Induction of apoptosis in human MDA-MB-231 cells assessed as viable cells at 12 uM measured after 48 hrs by Annexin V-FITC/propidium iodide staining based flow cytometry (95.8%); format: functional; conditions: MDA-MB-231, 48 h, read-out: Activity
[17] = biological target: T1, CDK6/cyclin D3; test: Binding affinity to recombinant full-length GFP-fused CDK6/His-tagged cyclin D3 (unknown origin) expressed in HEK293T cells measured after 30 mins by microscale thermophoresis method; parameters: species or system HEK-293T
[18] = Tmax in Sprague-Dawley rat at 10 mg/kg, po by LC-MS/MS analysis; format: ADME, organism-based; conditions: in vivo
[19] = system: MDA-MB-231; test: Cell cycle arrest in human MDA-MB-231 cells assessed as accumulation at S phase at 12 uM measured after 48 hrs by propidium iodide staining based flow cytometry (reference value: 26.45%); format: functional
[20] = system: MDA-MB-231; test: Cell cycle arrest in human MDA-MB-231 cells assessed as accumulation at G0/G1 phase at 4 uM measured after 48 hrs by propidium iodide staining based flow cytometry (reference value: 57.65%); format: functional
[21] = system: MDA-MB-231; test: Cell cycle arrest in human MDA-MB-231 cells assessed as accumulation at S phase at 4 uM measured after 48 hrs by propidium iodide staining based flow cytometry (reference value: 26.45%); format: functional
[22] = Clearance in Sprague-Dawley rat at 10 mg/kg, po by LC-MS/MS analysis; format: ADME, organism-based; conditions: in vivo
[23] = AUC (0 to infinity) in Sprague-Dawley rat at 10 mg/kg, po by LC-MS/MS analysis; format: ADME, organism-based; parameters: dose 10 mg/kg, time infinity, route oral; conditions: in vivo
[24] = Stability in mouse hepatocytes assessed as parent compound remaining after 120 mins by LC-MS/MS analysis; format: ADME, cell-based, Hepatocyte; conditions: read-out: Stability
[25] = Clearance in Sprague-Dawley rat at 2 mg/kg, iv by LC-MS/MS analysis; format: ADME, organism-based; conditions: in vivo
[26] = system: MDA-MB-231; test: Induction of apoptosis in human MDA-MB-231 cells assessed as necrotic cells at 8 uM measured after 48 hrs by Annexin V-FITC/propidium iodide staining based flow cytometry (0.498%); format: functional
[27] = system: MDA-MB-231; test: Induction of apoptosis in human MDA-MB-231 cells assessed as early apoptotic cells at 8 uM measured after 48 hrs by Annexin V-FITC/propidium iodide staining based flow cytometry (0.877%); format: functional
[28] = system: MCF7; test: Antiproliferative activity against human MCF7 cells assessed as inhibition of cell proliferation measured after 48 hrs by CCK8 assay; format: functional, cell-based; conditions: MCF7, 48 h
[29] = biological target: CDK9/cyclin T1 (Homo sapiens, UniProt P50750); test: Binding affinity to recombinant full-length GFP-fused CDK9/His-tagged cyclin T1 (unknown origin) expressed in HEK293T cells measured after 30 mins by microscale thermophoresis method; parameters: species or system HEK-293T
Sequence of CDK9/cyclin T1 (O60563 whole entry, the tested form may be a part): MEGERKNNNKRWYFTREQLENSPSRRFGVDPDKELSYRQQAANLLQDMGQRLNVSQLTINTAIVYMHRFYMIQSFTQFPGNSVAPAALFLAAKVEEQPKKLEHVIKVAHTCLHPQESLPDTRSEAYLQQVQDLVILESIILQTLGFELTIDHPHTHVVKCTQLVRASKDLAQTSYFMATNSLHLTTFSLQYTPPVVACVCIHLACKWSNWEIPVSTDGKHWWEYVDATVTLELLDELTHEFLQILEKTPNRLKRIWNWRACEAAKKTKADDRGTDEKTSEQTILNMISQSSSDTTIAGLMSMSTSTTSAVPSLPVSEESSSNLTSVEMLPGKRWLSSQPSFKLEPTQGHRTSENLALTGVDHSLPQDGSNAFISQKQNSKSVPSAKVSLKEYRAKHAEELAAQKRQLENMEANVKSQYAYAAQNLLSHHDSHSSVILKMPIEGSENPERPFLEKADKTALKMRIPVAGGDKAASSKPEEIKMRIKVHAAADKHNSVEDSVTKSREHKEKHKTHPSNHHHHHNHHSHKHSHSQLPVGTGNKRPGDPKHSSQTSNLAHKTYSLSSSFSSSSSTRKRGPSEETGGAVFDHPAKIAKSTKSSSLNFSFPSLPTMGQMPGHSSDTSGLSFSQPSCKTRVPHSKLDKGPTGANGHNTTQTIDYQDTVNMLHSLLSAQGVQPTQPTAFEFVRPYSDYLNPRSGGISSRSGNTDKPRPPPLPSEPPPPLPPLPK
Sequence of CDK9/cyclin T1 (P50750 whole entry, the tested form may be a part): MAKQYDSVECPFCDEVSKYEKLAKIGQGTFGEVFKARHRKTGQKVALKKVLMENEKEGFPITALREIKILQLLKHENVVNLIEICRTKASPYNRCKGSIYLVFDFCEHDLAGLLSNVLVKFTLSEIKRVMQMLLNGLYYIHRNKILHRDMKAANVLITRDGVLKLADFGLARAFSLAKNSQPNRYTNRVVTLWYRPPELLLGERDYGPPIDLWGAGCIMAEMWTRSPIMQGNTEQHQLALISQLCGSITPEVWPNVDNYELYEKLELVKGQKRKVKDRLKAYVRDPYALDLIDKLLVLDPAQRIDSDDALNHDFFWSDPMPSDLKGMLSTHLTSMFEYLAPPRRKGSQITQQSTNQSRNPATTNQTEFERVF

[30] = Octanol-water partition coefficient, log P of the compound by HPLC-based shake flask method; format: physicochemical
[31] = Cytotoxicity against human L02 cells assessed as inhibition of cell proliferation measured after 48 hrs by CCK8 assay; format: cell-based
[32] = system: MDA-MB-231; test: Cell cycle arrest in human MDA-MB-231 cells assessed as accumulation at G2/M phase at 8 uM measured after 48 hrs by propidium iodide staining based flow cytometry (reference value: 15.9%); format: functional
[33] = Apparent permeability in human Caco2 cells measured after 90 mins by LC-MS/MS analysis; format: ADME, cell-based; conditions: Caco-2
[34] = Thermodynamic equilibrium solubility in normal saline by HPLC-based shake flask method; format: physicochemical; conditions: read-out: Therm_solubility
[35] = Half life in Sprague-Dawley rat at 10 mg/kg, po by LC-MS/MS analysis; format: ADME, organism-based; conditions: in vivo
[36] = system: MDA-MB-231; test: Induction of apoptosis in human MDA-MB-231 cells assessed as early apoptotic cells at 4 uM measured after 48 hrs by Annexin V-FITC/propidium iodide staining based flow cytometry (0.877%); format: functional
[37] = Clearance in mouse hepatocytes assessed per million cells by LC-MS/MS analysis; format: ADME, cell-based, Hepatocyte; conditions: read-out: CLH
[38] = Toxicity in human MDA-MB-231 cells xenografted BALB/c nu/nu mouse assessed as body weight loss at 22.5 to 90 mg/kg, po administered once daily for 3 weeks and measured at 3 days interval during compound dosing; format: organism-based; conditions: in vivo
[39] = Toxicity in ICR mouse assessed as toxic reaction at 500 mg/kg, po administered as single dose measured for 7 days; format: organism-based; conditions: in vivo, 168 h
[40] = system: MDA-MB-231; test: Induction of apoptosis in human MDA-MB-231 cells assessed as late apoptotic cells at 8 uM measured after 48 hrs by Annexin V-FITC/propidium iodide staining based flow cytometry (2.78%); format: functional
[41] = Half life in mouse hepatocytes by LC-MS/MS analysis; format: ADME, cell-based, Hepatocyte

T1 sequence (P30281 whole entry): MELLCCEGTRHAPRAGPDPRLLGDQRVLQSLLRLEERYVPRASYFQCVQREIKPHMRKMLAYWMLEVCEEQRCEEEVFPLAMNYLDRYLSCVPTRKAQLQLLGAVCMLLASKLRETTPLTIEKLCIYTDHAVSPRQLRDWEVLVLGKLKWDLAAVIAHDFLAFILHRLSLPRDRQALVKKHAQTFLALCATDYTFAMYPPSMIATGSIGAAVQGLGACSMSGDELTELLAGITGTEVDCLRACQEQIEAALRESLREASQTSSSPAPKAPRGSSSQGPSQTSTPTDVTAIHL
T1 sequence (Q00534 whole entry): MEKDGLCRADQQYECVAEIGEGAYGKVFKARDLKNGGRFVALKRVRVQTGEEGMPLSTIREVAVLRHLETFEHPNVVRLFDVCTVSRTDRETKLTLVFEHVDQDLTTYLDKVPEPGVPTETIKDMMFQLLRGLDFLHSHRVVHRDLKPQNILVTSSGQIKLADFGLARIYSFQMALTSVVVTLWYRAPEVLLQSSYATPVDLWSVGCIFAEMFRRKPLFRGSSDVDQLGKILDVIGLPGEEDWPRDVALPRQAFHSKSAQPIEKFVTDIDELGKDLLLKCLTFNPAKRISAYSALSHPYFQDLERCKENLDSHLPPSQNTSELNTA

## CC(=O)Nc1cccc(Nc2nc(Nc3ccc(N4CCN(C)CC4)cn3)ncc2Cl)c1
[1]
  IC50: 0.0405 µM
[2]
  Cmax: 101 ng/mL
[3]
  IC50: 4.01 to 8.08 µM
[4]
  Activity: 26.4%
[5]
  AUC(0-inf): 641 ng·h/mL
[6]
  Activity: 2.24%
[7]
  hepatocyte CLint: 7.5 µL/min/1e6 cells
[8]
  Activity: 77.51%
[9]
  IC50: 4.01 to 8.08 µM
[10]
  viability at 4 µM: 94.2%
[11]
  half-life: 1.53 h
[12]
  Activity: 14.36%
[13]
  Activity: 0.57%
[14]
  Activity: 3.15%
[15]
  viability at 8 µM: 87.5%
[16]
  viability at 12 µM: 54.9%
[17]
  Kd: 0.071 µM
[18]
  Tmax: 4 h
[19]
  Activity: 15.23%
[20]
  Activity: 71.85%
[21]
  Activity: 18.97%
[22]
  CL/F: 180 mL/min/kg
[23]
  AUC(0-inf): 926 ng·h/mL
[24]
  remaining at 2 h: 12%
[25]
  clearance: 52.2 mL/min/kg
[26]
  Activity: 0.766%
[27]
  Activity: 5.06%
[28]
  IC50: 4.01 to 8.08 µM
[29]
  Kd: 0.03 µM
[30]
  logP: 1.23
[31]
  GI50 at 48 h: > 100 µM
[32]
  Activity: 8.13%
[33]
  Papp at 1.5 h: 1.7 ×10⁻⁶ cm/s
[34]
  solubility thermodynamic: 214 µg/mL (≈ 472 µM)
[35]
  half-life: 3.24 h
[36]
  Activity: 2.08%
[37]
  hepatocyte CLint: 17.7 µL/min/1e6 cells
[38]
  Activity: Non-Toxic
[39]
  Activity: Non-Toxic
[40]
  Activity: 6.72%
[41]
  half-life: 0.653 h

Reference: ChEMBL document CHEMBL4602695, “Discovery and SARs of 5-Chloro-N4-phenyl-N2-(pyridin-2-yl)pyrimidine-2,4-diamine Derivatives as Oral Available and Dual CDK 6 and 9 Inhibitors with Potent Antitumor Activity” (J Med Chem, 2020)
